In assay [1] the target is T1, GK from Bacillus stearothermophilus (Geobacillus stearothermophilus, UniProt A0ACH1EBP7).
T1 construct: coupled glycerol phosphate oxidase/peroxidase test
Kind of assay: Comparative investigation of inhibitors, reaction rate ΔE/min (Table 1). Type of assay: biochemical. Conditions: sample glycerol 6 mMole/liter, 1:100, 25° C., 546 nm. How it is done:
(§1) Comparative investigation of various inhibitors according to the present invention with GK of varying origin: […]
(§2) tris/HCl 0.1 mole/litre, pH 7.6
(§3) glycerol phosphate oxidase
(§4) glycerol kinase 2.0 U/ml.
(§5) magnesium sulphate heptahydrate
(§6) 4-chlorophenol 3.5 mMole/litre
(§7) 4-aminoantipyrine 0.35 mMole/litre
(§8) Sample: aqueous glycerol solution 6 mMole/liter sample/reagent ratio 1:100 (20 μl./2 ml.)
(§9) measurement wavelength 546 nm. (ΔE/min. in each case read off from the linear region)

In the next assay the target is GK from Escherichia coli (Escherichia coli, UniProt P0A6F3). Kind of assay: Comparative investigation of inhibitors, reaction rate ΔE/min (Table 2). It counts as biochemical. Particulars: sample glycerol 6 mMole/liter, 1:100, 25° C., 546 nm. How it is done:
as §1, §2, §3, §4, §5, §6, §7, §8, §9

T1 sequence (A0ACH1EBP7 1-496): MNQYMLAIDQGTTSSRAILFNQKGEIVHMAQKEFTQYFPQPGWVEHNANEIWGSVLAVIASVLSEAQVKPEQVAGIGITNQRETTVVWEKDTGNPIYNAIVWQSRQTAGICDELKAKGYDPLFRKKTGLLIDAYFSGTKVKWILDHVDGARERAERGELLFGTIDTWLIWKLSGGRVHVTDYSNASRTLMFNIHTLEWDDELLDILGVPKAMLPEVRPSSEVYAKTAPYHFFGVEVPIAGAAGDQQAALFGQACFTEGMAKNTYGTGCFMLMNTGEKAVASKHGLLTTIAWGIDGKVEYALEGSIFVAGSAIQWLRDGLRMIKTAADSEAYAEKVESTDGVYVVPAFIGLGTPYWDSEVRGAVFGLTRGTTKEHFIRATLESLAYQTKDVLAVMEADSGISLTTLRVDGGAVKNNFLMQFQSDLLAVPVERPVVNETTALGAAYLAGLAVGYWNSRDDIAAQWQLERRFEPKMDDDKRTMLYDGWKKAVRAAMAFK
Chain of GK from Escherichia coli (P0A6F3 whole entry): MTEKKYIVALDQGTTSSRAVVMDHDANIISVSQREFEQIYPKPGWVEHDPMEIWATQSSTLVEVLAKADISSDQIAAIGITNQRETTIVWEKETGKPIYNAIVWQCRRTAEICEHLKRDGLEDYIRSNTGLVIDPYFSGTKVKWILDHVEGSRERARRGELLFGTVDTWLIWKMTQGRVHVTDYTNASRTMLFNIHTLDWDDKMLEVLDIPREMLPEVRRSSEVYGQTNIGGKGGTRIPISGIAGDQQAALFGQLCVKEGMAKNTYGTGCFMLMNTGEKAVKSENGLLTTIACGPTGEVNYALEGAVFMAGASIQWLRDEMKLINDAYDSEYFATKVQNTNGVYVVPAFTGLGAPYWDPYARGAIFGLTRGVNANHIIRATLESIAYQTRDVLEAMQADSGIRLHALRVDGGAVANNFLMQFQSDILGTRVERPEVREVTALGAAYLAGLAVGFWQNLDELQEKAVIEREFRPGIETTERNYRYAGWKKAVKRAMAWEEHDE

As for `O=C[C@@H](O)[C@H](O)[C@H](O)CO` [D-arabinose], the ΔE/min in assay [1] (inhibitor 10 mMol/l) is 0.426 min⁻¹; in assay [1] (inhibitor 20 mMol/l), 0.349 min⁻¹; in assay [1] (inhibitor 50 mMol/l), 0.249 min⁻¹; in assay [1] (inhibitor 100 mMol/l), 0.121 min⁻¹; at GK from Escherichia coli (inhibitor 20 mMol/l), 0.363 min⁻¹; on GK from Escherichia coli (inhibitor 50 mMol/l), 0.302 min⁻¹. For the same molecule, the ΔE/min at GK from Escherichia coli (inhibitor 100 mMol/l) was found to be 0.231 min⁻¹; at GK from Escherichia coli (inhibitor 150 mMol/l), 0.167 min⁻¹.
As to `C[C@H](O)[C@@H](O)[C@@H](O)[C@H](O)C=O` [L-fucose], the ΔE/min in assay [1] (inhibitor 10 mMol/l) was 0.230 min⁻¹; in assay [1] (inhibitor 20 mMol/l), 0.153 min⁻¹; in assay [1] (inhibitor 50 mMol/l), 0.077 min⁻¹; in assay [1] (inhibitor 100 mMol/l), 0.039 min⁻¹; at GK from Escherichia coli (inhibitor 20 mMol/l), 0.352 min⁻¹; at GK from Escherichia coli (inhibitor 50 mMol/l), 0.286 min⁻¹. The ΔE/min on GK from Escherichia coli (inhibitor 100 mMol/l) turned out to be 0.209 min⁻¹; on GK from Escherichia coli (inhibitor 150 mMol/l), 0.142 min⁻¹.
With `O=C[C@@H](O)[C@H](O)[C@@H](O)CO` [L-xylose], the ΔE/min was 0.320 min⁻¹ in assay [1] (inhibitor 2 mMol/l); 0.188 min⁻¹ in assay [1] (inhibitor 5 mMol/l); 0.105 min⁻¹ in assay [1] (inhibitor 10 mMol/l); 0.062 min⁻¹ in assay [1] (inhibitor 20 mMol/l); 0.228 min⁻¹ at GK from Escherichia coli (inhibitor 5 mMol/l); 0.169 min⁻¹ at GK from Escherichia coli (inhibitor 10 mMol/l). The values for the ΔE/min at GK from Escherichia coli (inhibitor 20 mMol/l) and at GK from Escherichia coli (inhibitor 50 mMol/l) were 0.118 min⁻¹ and 0.072 min⁻¹, respectively.

Source of the values: patent US4705749A, “Process and reagent for the determination of glycerol with the use of glycerol kinase” (Boehringer Mannheim GmbH, priority 1983, dated 1987).
